Key:
human mGlu3 [1] = target: T1, human mGlu3 (Homo sapiens, UniProt Q14832)
human mGlu5 [2] = target: T2, human mGlu5 (Homo sapiens, UniProt P41594); assay: Calcium mobilization assay, mGlu5 PAM activity; assay type: cell-based; conditions: for decrease in mGlu5 potency versus comparator analog: 4n vs 4k, 4x vs 4c, 4z vs unsubstituted -CH2-O- linker, 20 vs piperazinone core; for mGlu5 activity in words: 4y vs 4k, 21a-c pyrazole unit modifications
Ca channels = assay: Cardiovascular ion channel interaction, Ca channel; conditions: read-out: Ca channel IC50
[3] = High content cytotoxicity assay
[4] = Predicted rat hepatic clearance from microsomal CLint; assay type: in vitro ADME; conditions: predicted hepatic clearance based on microsomal CLint data
[5] = Terminal unbound brain concentration in the AHL study; conditions: rat, in vivo, po, 10 mg/kg
Toxicology rat MTD study = assay type: in vivo
Na channels = assay: Cardiovascular ion channel interaction, Na channel; conditions: read-out: Na channel IC50
human mGlu3 [6] = target: T1, human mGlu3; assay: cell-based
human mGlu5 [7] = target: T2, human mGlu5; conditions: cited from earlier work

T1 sequence (Q14832 23-879): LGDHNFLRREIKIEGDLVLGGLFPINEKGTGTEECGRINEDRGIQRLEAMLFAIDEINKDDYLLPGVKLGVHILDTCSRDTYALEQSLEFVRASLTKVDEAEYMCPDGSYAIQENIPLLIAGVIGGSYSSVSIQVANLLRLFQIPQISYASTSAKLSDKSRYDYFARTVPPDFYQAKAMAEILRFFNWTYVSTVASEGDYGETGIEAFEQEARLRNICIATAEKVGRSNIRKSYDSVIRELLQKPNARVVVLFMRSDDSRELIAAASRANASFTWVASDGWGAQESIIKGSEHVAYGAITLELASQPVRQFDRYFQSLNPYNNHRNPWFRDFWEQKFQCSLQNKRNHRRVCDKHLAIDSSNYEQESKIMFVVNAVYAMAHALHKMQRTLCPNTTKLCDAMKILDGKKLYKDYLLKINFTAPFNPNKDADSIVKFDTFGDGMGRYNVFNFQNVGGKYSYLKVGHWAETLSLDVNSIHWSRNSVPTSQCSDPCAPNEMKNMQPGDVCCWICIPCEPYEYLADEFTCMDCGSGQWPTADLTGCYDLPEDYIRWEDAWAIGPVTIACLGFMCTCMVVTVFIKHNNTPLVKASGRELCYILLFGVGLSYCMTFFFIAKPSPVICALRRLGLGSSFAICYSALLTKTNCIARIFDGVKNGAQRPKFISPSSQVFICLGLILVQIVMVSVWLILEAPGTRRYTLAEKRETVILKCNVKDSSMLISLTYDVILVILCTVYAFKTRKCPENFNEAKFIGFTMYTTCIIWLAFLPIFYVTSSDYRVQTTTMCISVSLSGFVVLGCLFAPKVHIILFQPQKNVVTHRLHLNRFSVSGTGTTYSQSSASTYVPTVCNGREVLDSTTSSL
T2 sequence (P41594 21-1212): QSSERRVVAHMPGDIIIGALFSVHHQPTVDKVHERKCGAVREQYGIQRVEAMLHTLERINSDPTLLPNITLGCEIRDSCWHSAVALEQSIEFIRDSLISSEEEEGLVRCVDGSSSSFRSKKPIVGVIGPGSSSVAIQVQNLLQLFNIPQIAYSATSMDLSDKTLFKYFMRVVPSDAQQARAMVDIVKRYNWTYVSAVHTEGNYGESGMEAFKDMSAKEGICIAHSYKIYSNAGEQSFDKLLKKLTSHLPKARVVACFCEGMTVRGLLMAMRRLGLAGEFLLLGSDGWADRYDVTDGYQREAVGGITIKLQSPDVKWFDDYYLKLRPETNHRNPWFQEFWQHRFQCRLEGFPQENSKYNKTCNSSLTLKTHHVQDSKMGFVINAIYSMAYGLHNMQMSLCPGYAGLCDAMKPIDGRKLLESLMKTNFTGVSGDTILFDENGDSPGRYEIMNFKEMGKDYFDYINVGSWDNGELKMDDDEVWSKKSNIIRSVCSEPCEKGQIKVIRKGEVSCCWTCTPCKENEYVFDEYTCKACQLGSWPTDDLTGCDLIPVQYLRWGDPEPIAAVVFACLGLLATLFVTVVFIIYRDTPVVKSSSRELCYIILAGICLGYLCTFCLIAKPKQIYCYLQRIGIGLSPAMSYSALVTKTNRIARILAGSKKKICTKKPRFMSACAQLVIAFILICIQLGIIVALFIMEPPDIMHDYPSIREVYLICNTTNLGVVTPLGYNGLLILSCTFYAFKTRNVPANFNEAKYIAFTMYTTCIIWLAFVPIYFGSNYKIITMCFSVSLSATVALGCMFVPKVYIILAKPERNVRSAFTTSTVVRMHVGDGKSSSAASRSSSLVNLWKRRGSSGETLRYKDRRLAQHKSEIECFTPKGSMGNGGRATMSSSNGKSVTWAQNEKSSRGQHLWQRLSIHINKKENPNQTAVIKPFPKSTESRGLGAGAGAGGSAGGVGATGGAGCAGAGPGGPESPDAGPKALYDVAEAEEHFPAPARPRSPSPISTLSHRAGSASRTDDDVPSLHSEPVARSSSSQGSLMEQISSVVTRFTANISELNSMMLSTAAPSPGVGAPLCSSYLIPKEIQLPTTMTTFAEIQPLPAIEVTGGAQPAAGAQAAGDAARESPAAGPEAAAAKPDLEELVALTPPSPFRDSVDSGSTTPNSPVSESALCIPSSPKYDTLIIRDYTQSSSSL

O=C1c2cc(COc3ccccc3)nn2CCN1c1ccc(F)cc1 [4c]
extent of mGlu3 antagonism (human mGlu3 [1]): full antagonism | pEC50 (±SEM) (human mGlu5 [2]; HEK293 cells expressing human mGlu5, average of three or more determinations): 7.19 ± 0.02

Cc1ccc(N2CCn3nc(COc4ccccc4)cc3C2=O)cc1 [4f]
extent of mGlu3 antagonism (human mGlu3 [1]): full antagonism

O=C1c2cc(COc3ccccc3)nn2CCN1c1ccccn1 [4h]
increased mGlu5 potency over the 3- and 4- pyridyl isomers (4i,j) (human mGlu5 [2]): ~ 3 fold

O=C1c2cc(COc3ccccc3)nn2CCN1c1ccc(F)cn1 [4k]
IC50 (Ca channels): > 10 µM | high content cytotoxicity [3]: > 100 µM | Rat CLhep [4]: 34.5 mL/min/kg | concentration at 90 min [5]: 313 nM | AMES result (AMES): benign profile | death of animals at the highest dose (Toxicology rat MTD study; 600 mg/kg p.o., rat MTD study): 2/6 | signs of CNS-related side-effects (compulsive behavior, pedaling movements of the forepaws, tremors) (Toxicology rat MTD study; rat MTD study 25, 75, 150, 300 and 600 mg/kg p.o.): starting at the lowest tested dose | IC50 (Na channels): > 10 µM

Cc1ccc(N2CCn3nc(COc4ccccc4)cc3C2=O)nc1 [4l]
functional selectivity for mGlu5 versus mGlu3 antagonist activity (human mGlu3 [1]): > 50 fold | EC50 (human mGlu3 [6]): > 10 µM

O=C1c2cc(COc3ccccc3)nn2CCN1c1ncc(F)cn1 [4n]
decrease in mGlu5 potency versus comparator analog (human mGlu5 [2]): ~ 6 fold

O=C1c2cc(COc3ccc(F)cc3)nn2CCN1c1ccc(F)cc1 [4q]
extent of mGlu3 antagonism (human mGlu3 [1]): full antagonism

O=C1c2cc(COc3ccccn3)nn2CCN1c1ccc(F)cc1 [4s]
extent of mGlu3 antagonism (human mGlu3 [1]): full antagonism

O=C1c2cc(COc3cccc(F)c3)nn2CCN1c1ccc(F)cn1 [4w]
EC50 (human mGlu3 [6]): 0.14 µM

O=C1c2cc(OCc3ccccc3)nn2CCN1c1ccc(F)cc1 [4x]
decrease in mGlu5 potency versus comparator analog (human mGlu5 [2]): ~ 2.5 fold | Rat CLhep [4]: 34.6 mL/min/kg | concentration at 90 min [5]: 376 nM

O=C1c2cc(OCc3ccccc3)nn2CCN1c1cc(F)ccn1 [4y]
mGlu5 activity in words (human mGlu5 [2]): complete loss of activity

CC(Oc1ccccc1)c1cc2n(n1)CCN(c1ccc(F)cc1)C2=O (stereo not drawn) [4z]
decrease in mGlu5 potency versus comparator analog (human mGlu5 [2]): > 100 fold

O=C1c2nc(COc3ccccc3)nn2CCN1c1ccc(F)cc1 [21a]
mGlu5 activity in words (human mGlu5 [2]): remarkable loss of mGlu5 potency

Cc1c(COc2ccccc2)nn2c1C(=O)N(c1ccc(F)cc1)CC2 [21b]
mGlu5 activity in words (human mGlu5 [2]): remarkable loss of mGlu5 potency

O=C(c1ccc(F)cc1)N1CCc2oc(COc3ccccc3)nc2C1 [compound 1]
glutamate CRC fold-shift (FS) (human mGlu5 [7]): 11

O=C1c2cc(COc3ccccc3)nn2CCCN1c1ccc(F)cc1 [compound 20]
decrease in mGlu5 potency versus comparator analog (human mGlu5 [2]): ~ 3 fold
